Assay results as given in ChEMBL document CHEMBL2321861, “Multifunctional radical quenchers for the treatment of mitochondrial dysfunction” (ACS Med Chem Lett, 2013).

What was measured:
[1] = Antioxidant activity assessed as suppression of lipid peroxidation at 1 uM relative to control; assay type: functional
[2] = Antioxidant activity assessed as suppression of lipid peroxidation at 5 uM relative to control; assay type: functional
[3] = Inhibition of NADH oxidase (unknown origin) at 1 uM relative to control; details: Homo sapiens
[4] = Inhibition of NADH oxidase (unknown origin) at 5 uM relative to control; details: Homo sapiens

| Compound | Activity [1] [%] | Activity [2] [%] | inhibition [3] [%] | inhibition [4] [%] |
| --- | --- | --- | --- | --- |
| CCCCCCCc1c(C)n(O)c(C)cc1=O | 0 | 0 | – | – |
| CCCCCCCCCCCCCCCCc1c(C)n(O)c(C)cc1=O | 10 | 20 | – | – |
| CCCCCCCCCCc1c(C)n(O)c(C)cc1=O | 0 | 0 | – | – |
| CCCCCCCCCCc1c(C)n(O)c(C)c(Cl)c1=O | 0 | 0 | – | – |
| CCCCCCCCCCc1c(C)n(O)c(C)c(Br)c1=O | 0 | 0 | – | – |
| C=Cc1c(C)n(O)c(C)c(CCCCCCC)c1=O | 0 | 0 | 29.7 | 20.7 |
| C=Cc1c(C)n(O)c(C)c(CCCCCCCCCCCCCCCC)c1=O | 7 | 13 | 20.1 | 12 |
| CCCCCCCc1c(C)n(O)c(C)c(C(C)=O)c1=O | 11 | 2.2 | 74.5 | 44.5 |
| CCCCCCCc1c(C)n(O)c(C)c(Cl)c1=O | 0 | 0 | – | – |
| CCCCCCCCCCCCCCCCc1c(C)n(O)c(C)c(N)c1=O | 18 | 94 | 17.1 | 12.7 |
| CCCCCCCc1c(C)n(O)c(C)c(N)c1=O | 14 | 9.6 | 92.9 | 76.7 |
| CCCCCCCc1c(C)n(O)c(C)c(Br)c1=O | 0 | 0 | – | – |
| CCCCCCCCCCCCCCCCc1c(C)n(O)c(C)c(Br)c1=O | 7 | 15 | – | – |
